Earlier results as cited in patent publication US20040058975A1, “Method for fertility control” (Schering AG, priority 2002, published 2004).
Read-outs that look alike come from different tables or passages of the source.

How the values were obtained:
COX-2 = COX-2 (Homo sapiens, UniProt P35354); settings: humans
ovulation [1] = settings: COX-2 deficient mice
ovulation [2] = settings: several mammalian species including rats, rabbits, sheep
ovulation [3] = settings: monkeys
ovulation [4] = settings: women

COX-2, sequence (P35354 18-604): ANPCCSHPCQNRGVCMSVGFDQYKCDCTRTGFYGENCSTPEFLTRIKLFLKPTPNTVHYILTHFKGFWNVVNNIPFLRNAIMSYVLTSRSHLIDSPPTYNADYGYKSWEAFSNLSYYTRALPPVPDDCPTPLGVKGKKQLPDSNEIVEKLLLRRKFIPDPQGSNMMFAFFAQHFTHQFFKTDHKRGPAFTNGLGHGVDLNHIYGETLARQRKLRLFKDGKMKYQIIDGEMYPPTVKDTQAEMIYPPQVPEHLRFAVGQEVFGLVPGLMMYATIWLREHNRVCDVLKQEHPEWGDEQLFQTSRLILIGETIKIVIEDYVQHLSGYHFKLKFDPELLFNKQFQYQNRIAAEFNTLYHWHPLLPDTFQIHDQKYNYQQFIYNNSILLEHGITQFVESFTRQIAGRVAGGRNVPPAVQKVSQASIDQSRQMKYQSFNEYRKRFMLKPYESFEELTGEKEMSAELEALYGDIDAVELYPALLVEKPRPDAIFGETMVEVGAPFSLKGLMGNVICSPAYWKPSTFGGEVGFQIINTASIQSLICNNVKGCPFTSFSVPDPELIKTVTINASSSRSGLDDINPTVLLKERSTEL

Compound | anovulation (ovulation [1]) | ovulation (ovulation [2]) | further results
CS(=O)(=O)c1ccc(C2=C(c3ccccc3)C(=O)OC2)cc1 [Rofecoxib, 4-(4-mesylphenyl)-3-phenylfuran-2(5H)-one] | – | – | follicular rupture (COX-2): delayed follicular rupture; peripheral hormonal cycles (COX-2): without affecting peripheral hormonal cycles
CCCCC[C@H](O)/C=C/[C@H]1[C@H](O)CC(=O)[C@@H]1C/C=C\CCCC(=O)O [prostaglandin E2] | restored | – | –
CC(=O)Oc1ccccc1C(=O)O [Aspirin] | – | may prevent ovulation | –
COc1ccc2c(c1)c(CC(=O)O)c(C)n2C(=O)c1ccc(Cl)cc1 [Indomethacin] | – | may prevent ovulation | ovulation (ovulation [3]): block ovulation; ovulation (ovulation [4]): block ovulation
Interleukin-1β: Interleukin-1β | restored | – | –
COc1ccc2cc([C@H](C)C(=O)O)ccc2c1 [Naproxen] | – | may prevent ovulation | –
